Converted amounts (≈) assume the structure as drawn.
How the values were obtained:
[1] = tested on: S. epidermidis ATCC 12228; test: MIC, micro-dilution broth method; type: cell-based, Staphylococcus epidermidis; conditions: Gram-positive bacteria, micro-dilution broth; for MIC: Staphylococcus epidermidis, ATCC12228, read-out: MIC, S. epidermidis ATCC 12228
Method: (§1) Samples of complexes (about 20 mg) were digested in a concentrated mixture of 36% HCl (1 mL) and 65% HNO3 (6 mL). The contents of Cd (II) in the solid complexes were determined with an F-AAS spectrometer (Analytik Jena, contraAA 300, Jena, Germany) with a continuous source of light and using an air/acetylene flame (Analytik Jena, contraAA 300). Absorbances were measured at the analytical spectral lines at 228.8 nm for Cd (II). The limit of quantification was 0.004 mg/L for Cd (II). The solid samples were decomposed using an Anton Paar Multiwave 3000 (Graz, Austria) closed-system instrument. Mineralization was carried out for 45 min at 240 °C under a pressure of 60 bar. The contents of carbon, hydrogen, and nitrogen were determined with an instrument from Vario Micro Company Elementar Analysensysteme GmbH (Langenselbold, Germany). FTIR spectra were recorded with an IR Tracer-100 Schimadzu Spectrometer (4000–600 cm^−1 with an accuracy of recording of 1 cm^−1, Kyoto, Japan) using KBr pellets. The thermal analyses were carried out with a Netzsch STA 449 F1 Jupiter thermoanalyzer (Netzsch-Geratebau GmbH, Selb, Germany) coupled with a Netzsch Aeolos Quadro QMS 403 mass spectrometer (Netzsch-Geratebau GmbH, Selb, Germany). The samples were heated up to 1000 °C in corundum crucibles with a heating rate of 10 °C/min in an atmosphere of synthetic air (20% O2, 80% N2). The cytotoxic effects of the compounds were evaluated using glioblastoma (T98G), neuroblastoma (SK-N-AS), and lung adenocarcinoma (A549) cell lines and normal human skin fibroblasts (CCD-1059Sk). T98G and SK-N-AS cells were cultured in high-glucose DMEM and A549 cells were cultured in DMEM/F12, while CCD-1059Sk cells were cultured in MEM. All media were supplemented with 10% (FBS), 100 U/mL of penicillin, and […] of streptomycin (PenStrep). Cells were incubated at 37 °C in a humidified atmosphere of 5% CO2. Stock solutions were prepared by dissolving the compounds in sterile dimethyl sulfoxide (DMSO) to obtain a concentration of 50 mg/mL. The cells were seeded into sterile 96-well plates (Nunc) at a density of 1 × 10^5 cells/mL. After 24 h of incubation, the medium was removed from each well, and then the cells were incubated for the next 24 h with different concentrations of the tested compounds (1–100 µg/mL) in their respective media containing 2% FBS. The cytotoxicity of the compounds was evaluated using an MTT assay, which was based on the conversion of 3-(4,5-dimethylthiazol-2-yl)-2,5-diphenyltetrazolium bromide (MTT) into dark-blue formazan crystals. Briefly, after 24 h of incubation of the cells with varying concentrations of the tested compounds, all culture media were removed from the plates. The cells were washed with PBS, and then 100 µL of medium containing 10% MTT solution (5 mg/mL) was added to each well. After 3 h of incubation, 100 µL (per well) of 10% SDS buffer solution was added to solubilize the formazan crystals. After overnight incubation, the absorbance was measured at 570 nm using a microplate reader (Epoch, BioTek Instruments). Experiments were repeated twice, and the measurements in each experiment were run in triplicate. The viability of the investigated cells was expressed as the percentage of the viability of the untreated cells, and the results were transformed into IC50 values (expressed as mean ± SD). The complexes were screened for antibacterial and antifungal activity by using the micro-dilution broth method with Mueller–Hinton broth for the growth of bacteria or Mueller–Hinton broth with 2% glucose for the growth of fungi. […]

[2] = Solubility in culture medium (MTT assay); type: physicochemical; conditions: culture medium of the MTT assay
Method: Samples of complexes (about 20 mg) were digested in a concentrated mixture of 36% HCl (1 mL) and 65% HNO3 (6 mL). The contents of Cd (II) in the solid complexes were determined with an F-AAS spectrometer (Analytik Jena, contraAA 300, Jena, Germany) with a continuous source of light and using an air/acetylene flame (Analytik Jena, contraAA 300). Absorbances were measured at the analytical spectral lines at 228.8 nm for Cd (II). The limit of quantification was 0.004 mg/L for Cd (II). The solid samples were decomposed using an Anton Paar Multiwave 3000 (Graz, Austria) closed-system instrument. Mineralization was carried out for 45 min at 240 °C under a pressure of 60 bar. The contents of carbon, hydrogen, and nitrogen were determined with an instrument from Vario Micro Company Elementar Analysensysteme GmbH (Langenselbold, Germany). FTIR spectra were recorded with an IR Tracer-100 Schimadzu Spectrometer (4000–600 cm^−1 with an accuracy of recording of 1 cm^−1, Kyoto, Japan) using KBr pellets. […] The cytotoxic effects of the compounds were evaluated using glioblastoma (T98G), neuroblastoma (SK-N-AS), and lung adenocarcinoma (A549) cell lines and normal human skin fibroblasts (CCD-1059Sk). […] The cytotoxicity of the compounds was evaluated using an MTT assay, which was based on the conversion of 3-(4,5-dimethylthiazol-2-yl)-2,5-diphenyltetrazolium bromide (MTT) into dark-blue formazan crystals. […]

[3] = tested on: P. mirabilis ATCC 12453; test: MIC, micro-dilution broth method; type: cell-based, Proteus mirabilis; conditions: for MIC: Proteus mirabilis, ATCC12453, Gram-negative bacteria
Method: as §1

[4] = tested on: M. luteus ATCC 10240; test: MIC, micro-dilution broth method; type: cell-based, Micrococcus luteus; conditions: Gram-positive bacteria, micro-dilution broth; for MIC: Micrococcus luteus, ATCC10240, read-out: MIC, M. luteus ATCC 10240
Method: as §1

[5] = tested on: B. cereus ATCC 10876; test: MIC, micro-dilution broth method; type: cell-based, Bacillus cereus; conditions: Gram-positive bacteria, micro-dilution broth; for MIC: Bacillus cereus, ATCC10876, read-out: MIC, B. cereus ATCC 10876
Method: as §1

[6] = tested on: S. typhimurium ATCC 14028; test: MIC, micro-dilution broth method; type: cell-based, Salmonella Typhimurium; conditions: Gram-negative bacteria; for MIC: Salmonella enterica
Method: as §1

[7] = tested on: E. coli ATCC 25922; test: MIC, micro-dilution broth method; type: cell-based, Escherichia coli; conditions: for MIC: Escherichia coli, ATCC25922, Gram-negative bacteria
Method: as §1

[8] = tested on: K. pneumoniae ATCC 13883; test: MIC, micro-dilution broth method; type: cell-based, Klebsiella pneumoniae; conditions: for MIC: Klebsiella pneumoniae, ATCC13883, Gram-negative bacteria
Method: as §1

[9] = tested on: C. parapsilosis ATCC 22019; test: MIC, micro-dilution broth method; type: cell-based, Candida parapsilosis; conditions: Yeasts, micro-dilution broth with 2% glucose; for MIC: Lodderomyces parapsilosis, ATCC22019
Method: as §1

[10] = tested on: B. subtilis ATCC 6633; test: MIC, micro-dilution broth method; type: cell-based, Bacillus subtilis; conditions: Gram-positive bacteria, micro-dilution broth; for MIC: Bacillus subtilis, ATCC6633, read-out: MIC, B. subtilis ATCC 6633
Method: as §1

[11] = tested on: S. aureus ATCC 25923; test: MIC, micro-dilution broth method; type: cell-based, Staphylococcus aureus; conditions: Gram-positive bacteria, micro-dilution broth; for MIC: Staphylococcus aureus, ATCC25923, read-out: MIC, S. aureus ATCC 25923
Method: as §1

[12] = tested on: C. albicans ATCC 102231; test: MIC, micro-dilution broth method; type: cell-based, Candida albicans; conditions: for MIC: Candida albicans, ATCC102231, read-out: MIC, C. albicans ATCC 102231
Method: as §1

[13] = tested on: C. glabrata ATCC 2091; test: MIC, micro-dilution broth method; type: cell-based; conditions: for MIC: Nakaseomyces glabratus, ATCC2091, read-out: MIC, C. glabrata ATCC 2091
Method: as §1

[14] = tested on: E. faecalis ATCC 29212; test: MIC, micro-dilution broth method; type: cell-based, Enterococcus faecalis; conditions: Gram-positive bacteria, micro-dilution broth; for MIC: Enterococcus faecalis, ATCC29212, read-out: MIC, E. faecalis ATCC 29212
Method: as §1

[15] = tested on: P. aeruginosa ATCC 9027; test: MIC, micro-dilution broth method; type: cell-based, Pseudomonas aeruginosa; conditions: for MIC: Pseudomonas aeruginosa, ATCC9027, Gram-negative bacteria
Method: as §1

[16] = tested on: CCD-1059Sk cells; test: MTT cytotoxicity assay, normal human skin fibroblasts CCD-1059Sk; type: cell-based; conditions: normal human fibroblasts CCD-1059Sk, MTT assay after 24 h of incubation; read-out: IC50 ± SD, CCD-1059-Sk
Method: as §1

[17] = tested on: SK-N-AS cells; test: MTT cytotoxicity assay, neuroblastoma SK-N-AS; type: cell-based, human; conditions: Homo sapiens, SK-N-AS, 24 h, MTT assay after 24 h of incubation, read-out: IC50 ± SD, SK-N-AS
Method: as §1

[18] = tested on: T98G cells; test: MTT cytotoxicity assay, glioblastoma T98G; type: cell-based, human; conditions: Homo sapiens, MTT assay after 24 h of incubation, read-out: IC50 ± SD, T98G
Method: as §1

[19] = tested on: A549 cells; test: MTT cytotoxicity assay, lung adenocarcinoma A549; type: cell-based, human; conditions: Homo sapiens; lung carcinoma A549, MTT assay after 24 h of incubation; read-out: IC50 ± SD, A549
Method: as §1

[20] = Yeasts, micro-dilution broth with 2% glucose

For `O.[Cl][Cd][Cl].c1cc(-c2nc3ccncc3[nH]2)ccn1` [C1, Cd(L1)Cl2∙H2O], the “MIC, S. epidermidis ATCC 12228” value [1] was 250 µg/mL, the “solubility in culture medium” value [2] was “Not determined due to low solubility in culture medium” and the “MIC, P. mirabilis ATCC 12453” value ([3]; Gram-negative bacteria) was 1000 µg/mL. The “MIC, M. luteus ATCC 10240” value [4] was 7.8 µg/mL, the “MIC, B. cereus ATCC 10876” value [5] was 500 µg/mL and the “MIC, S. typhimurium ATCC 14028” value [6] was 1000 µg/mL. The “MIC, E. coli ATCC 25922” value ([7]; Gram-negative bacteria) was 1000 µg/mL, the “MIC, K. pneumoniae ATCC 13883” value ([8]; Gram-negative bacteria) was 1000 µg/mL and the “MIC, C. parapsilosis ATCC 22019” value [9] was 15.6 µg/mL. For the same molecule, the “MIC, B. subtilis ATCC 6633” value [10] was 7.8 µg/mL, the “MIC, S. aureus ATCC 25923” value [11] was 500 µg/mL and the “MIC, C. albicans ATCC 102231” value [12, 20] was 500 µg/mL. The “MIC, C. glabrata ATCC 2091” value [13, 20] was 62.5 µg/mL, the “MIC, E. faecalis ATCC 29212” value [14] was 125 µg/mL and the “MIC, P. aeruginosa ATCC 9027” value ([15]; Gram-negative bacteria) was over 1000 µg/mL.
For `c1cnc2[nH]c(-c3ccncc3)nc2c1` [L2], the MIC [1] was 1000 µg/mL (≈ 5.1 mM), the MIC [3] was 1000 µg/mL (≈ 5.1 mM) and the MIC [4] was 250 µg/mL (≈ 1.27 mM). It also gave an IC50 [16] of over 509 µM, an IC50 [17] of 415 ± 17 µM and an MIC [5] of 250 µg/mL (≈ 1.27 mM). The MIC [6] was 1000 µg/mL (≈ 5.1 mM), the MIC [7] was 1000 µg/mL (≈ 5.1 mM) and the MIC [8] was over 1000 µg/mL. The IC50 [18] was 178 ± 7.3 µM, the MIC [9] was over 1000 µg/mL and the MIC [10] was 500 µg/mL (≈ 2.55 mM). The MIC [11] was 1000 µg/mL (≈ 5.1 mM), the MIC [12] was 1000 µg/mL (≈ 5.1 mM) and the MIC [13] was over 1000 µg/mL. For the same molecule, the IC50 [19] was 220 ± 11 µM, the MIC [14] was 1000 µg/mL (≈ 5.1 mM) and the MIC [15] was over 1000 µg/mL.
With `c1cncc(-c2nc3cccnc3[nH]2)c1` [L3] the MIC [1] was over 1000 µg/mL, the MIC [3] was over 1000 µg/mL and the MIC [4] was 500 µg/mL (≈ 2.55 mM). It also gave an IC50 [16] of over 509 µM, an IC50 [17] of over 509 µM and an MIC [5] of 1000 µg/mL (≈ 5.1 mM). For the same molecule, the MIC [6] was over 1000 µg/mL, the MIC [7] was over 1000 µg/mL and the MIC [8] was over 1000 µg/mL. The IC50 [18] was over 509 µM, the MIC [9] was 1000 µg/mL (≈ 5.1 mM) and the MIC [10] was 1000 µg/mL (≈ 5.1 mM). It also gave an MIC [11] of over 1000 µg/mL, an MIC [12] of over 1000 µg/mL and an MIC [13] of over 1000 µg/mL. It also gave an IC50 [19] of over 509 µM, an MIC [14] of over 1000 µg/mL and an MIC [15] of over 1000 µg/mL.
In the case of `Brc1cnc2[nH]c(-c3cccnc3)nc2c1` [L4], the MIC [1] is reported as 1000 µg/mL (≈ 3.63 mM), the MIC [3] is reported as over 1000 µg/mL and the MIC [4] is reported as over 1000 µg/mL. The IC50 [16] was over 362 µM, the IC50 [17] was over 362 µM and the MIC [5] was 1000 µg/mL (≈ 3.63 mM). It also gave an MIC [6] of over 1000 µg/mL, an MIC [7] of over 1000 µg/mL and an MIC [8] of over 1000 µg/mL. The IC50 [18] was over 362 µM, the MIC [9] was 1000 µg/mL (≈ 3.63 mM) and the MIC [10] was 1000 µg/mL (≈ 3.63 mM). For the same molecule, the MIC [11] was over 1000 µg/mL, the MIC [12] was 500 µg/mL (≈ 1.82 mM) and the MIC [13] was over 1000 µg/mL. For the same molecule, the IC50 [19] was over 362 µM, the MIC [14] was 1000 µg/mL (≈ 3.63 mM) and the MIC [15] was over 1000 µg/mL.

— article PMC9412362, “Design, Synthesis, and Characterization of Novel Coordination Compounds of Benzimidazole Derivatives with Cadmium” (Pharmaceutics, 2022)
